In patent US20250019387A1 (Frontier Medicines Corporation, priority 0001, published 2025):

Molecular target: KRAS G12C and cRAF (Ras-binding domain) interaction (Homo sapiens (Human), UniProt P01116, C118S/C51S/C80L/G12C)
Assay: Inhibition of KRAS G12C and cRAF binding (AlphaScreen)
Settings: GMPPNP-loaded KRAS G12C, 19-20 hours incubation with compound; read-out: IC50 (Inhibition of KRAS G12C and cRAF Binding)
Method in brief: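 Compounds (DMSO) preincubated 19-20 h at room temperature, then RBD with streptavidin donor and glutathione acceptor beads added in 25 mM Hepes pH 7.4, 150 mM NaCl, 5 mM MgCl2, 0.01% Triton X-100, 2% DMSO for 60-90 min. Emission 570 nm (excitation 680 nm); IC50 by 4-parameter fit. Counter-screen used biotin-AviTag-GST instead of RBD.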

Sequence of KRAS G12C and cRAF (Ras-binding domain) interaction (P01116 other isoform, or with tags, fused parts or gaps G12C/C51S/C80L/C118S): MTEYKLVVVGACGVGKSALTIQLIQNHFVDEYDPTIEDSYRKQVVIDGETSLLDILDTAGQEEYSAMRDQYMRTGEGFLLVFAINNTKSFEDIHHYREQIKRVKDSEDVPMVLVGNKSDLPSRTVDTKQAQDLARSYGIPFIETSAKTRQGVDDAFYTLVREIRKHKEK

| Structure (SMILES) | IC50 [nM] |
| --- | --- |
| CN(c1nc(OC[C@@]23CCCN2C[C@H](F)C3)nc2c(F)c(-c3cccc4cccc(Cl)c34)ncc12)[C@@H]1CCN(C(=O)C#C[C@@]2(C)CCCN2C)C1 [Example 197, 1-((R)-3-((7-(8-chloronaphthalen-1-yl)-8-fluoro-2-(((2R,7aS)-2-fluorohexahydro-1H-pyrrolizin-7a-yl)methoxy)pyrido[4,3-d]pyrimidin-4-yl)(methyl)amino)pyrrolidin-1-yl)-3-((R)-1,2-dimethylpyrrolidin-2-yl)prop-2-yn-1-one] | 10 to 100 |
| C[C@@H](F)c1noc(/C=C/C(=O)N2CC(CN(C)c3nc(OC[C@@]45CCCN4C[C@H](F)C5)nc4c(F)c(-c5cccc6cccc(Cl)c56)ncc34)C2)n1 [Example 83, (E)-1-(3-(((7-(8-chloronaphthalen-1-yl)-8-fluoro-2-(((2R,7aS)-2-fluorotetrahydro-1H-pyrrolizin-7a(5H)-yl)methoxy)pyrido[4,3-d]pyrimidin-4-yl)(methyl)amino)methyl)azetidin-1-yl)-3-(3-((R)-1-fluoroethyl)-1,2,4-oxadiazol-5-yl)prop-2-en-1-one] | < 10 |
| CN(c1nc(OC[C@@H]2CCCN2C)nc2c(F)c(-c3cccc4cccc(Cl)c34)ncc12)C1CCN(C#N)C1 (stereo partly drawn) [Example 35, 3-((7-(8-chloronaphthalen-1-yl)-8-fluoro-2-(((S)-1-methylpyrrolidin-2-yl)methoxy)pyrido[4,3-d]pyrimidin-4-yl)(methyl)amino)pyrrolidine-1-carbonitrile] | 10 to 100 |
| Cc1nccc(/C=C/C(=O)N2CC[C@@H](N(C)c3nc(OC[C@@]45CCCN4C[C@H](F)C5)nc4c3CCN(c3cccc5cccc(Cl)c35)C4)C2)n1 [Example 71, (E)-1-((R)-3-((7-(8-chloronaphthalen-1-yl)-2-(((2R,7aS)-2-fluorohexahydro-1H-pyrrolizin-7a-yl)methoxy)-5,6,7,8-tetrahydropyrido[3,4-d]pyrimidin-4-yl)(methyl)amino)pyrrolidin-1-yl)-3-(2-methylpyrimidin-4-yl)prop-2-en-1-one] | > 500 |
| C#Cc1c(F)ccc2cccc(-c3ncc4c(N(C)[C@@H]5CCN(C(=O)C=C)C5)nc(OCC56CCCN5CCC6)nc4c3F)c12 [Example 303, (R)-1-(3-((7-(8-ethynyl-7-fluoronaphthalen-1-yl)-8-fluoro-2-((tetrahydro-1H-pyrrolizin-7a(5H)-yl)methoxy)pyrido[4,3-d]pyrimidin-4-yl)(methyl)amino)pyrrolidin-1-yl)prop-2-en-1-one] | < 10 |
| CN(c1nc(OC[C@@]23CCCN2C[C@H](F)C3)nc2c(F)c(-c3cccc4ccc(F)c(Cl)c34)ncc12)[C@@H]1CCN(C(=O)/C=C/[C@H]2CCN2CCO)C1 [Example 222, (E)-1-((R)-3-((7-(8-chloro-7-fluoronaphthalen-1-yl)-8-fluoro-2-(((2R,7aS)-2-fluorotetrahydro-1H-pyrrolizin-7a(5H)-yl)methoxy)pyrido[4,3-d]pyrimidin-4-yl)(methyl)amino)pyrrolidin-1-yl)-3-((R)-1-(2-hydroxyethyl)azetidin-2-yl)prop-2-en-1-one] | < 10 |
| CN1CC[C@@H]1/C=C/C(=O)N1C[C@H](F)[C@@H](N(C)c2nc(OC[C@@]34CCCN3C[C@H](F)C4)nc3c(F)c(-c4cccc5ccc(F)c(F)c45)ncc23)C1 [Example 199, (E)-1-((3S,4S)-3-((7-(7,8-difluoronaphthalen-1-yl)-8-fluoro-2-(((2R,7aS)-2-fluorotetrahydro-1H-pyrrolizin-7a(5H)-yl)methoxy)pyrido[4,3-d]pyrimidin-4-yl)(methyl)amino)-4-fluoropyrrolidin-1-yl)-3-((R)-1-methylazetidin-2-yl)prop-2-en-1-one] | < 10 |
| CN(c1nc(OC[C@@]23CCCN2C[C@H](F)C3)nc2c(F)c(-c3cccc4cccc(Cl)c34)ncc12)[C@@H]1CCN(C(=O)C#CCN2CCOCC2)C1 [Example 92, 1-((R)-3-((7-(8-chloronaphthalen-1-yl)-8-fluoro-2-(((2R,7aS)-2-fluorohexahydro-1H-pyrrolizin-7a-yl)methoxy)pyrido[4,3-d]pyrimidin-4-yl)(methyl)amino)pyrrolidin-1-yl)-4-morpholinobut-2-yn-1-one] | > 500 |
| Cc1c(F)ccc2c(-c3ncc4c(N(C)[C@@H]5CCN(C(=O)/C=C/[C@H]6CCN6C)C5)nc(OC[C@@]56CCCN5C[C@H](F)C6)nc4c3F)cccc12 [Example 282, (E)-1-((R)-3-((8-fluoro-7-(6-fluoro-5-methylnaphthalen-1-yl)-2-(((2R,7aS)-2-fluorotetrahydro-1H-pyrrolizin-7a(5H)-yl)methoxy)pyrido[4,3-d]pyrimidin-4-yl)(methyl)amino)pyrrolidin-1-yl)-3-((R)-1-methylazetidin-2-yl)prop-2-en-1-one] | 100 to 500 |
| CN(c1nc(OC[C@@]23CCCN2C[C@H](F)C3)nc2c(F)c(-c3cccc4cccc(Cl)c34)ncc12)[C@@H]1CCN(C(=O)C#CC2CCNC2)C1 (stereo partly drawn) [Example 58, 1-((R)-3-((7-(8-chloronaphthalen-1-yl)-8-fluoro-2-(((2R,7aS)-2-fluorohexahydro-1H-pyrrolizin-7a-yl)methoxy)pyrido[4,3-d]pyrimidin-4-yl)(methyl)amino)pyrrolidin-1-yl)-3-(pyrrolidin-3-yl)prop-2-yn-1-one] | 10 to 100 |
| Cc1noc(/C=C/C(=O)N2CC[C@@H](N(C)c3nc(OC[C@@]45CCCN4C[C@H](F)C5)nc4c3CCN(c3cccc5cccc(Cl)c35)C4)C2)n1 [Example 178, (E)-1-((R)-3-((7-(8-chloronaphthalen-1-yl)-2-(((2R,7aS)-2-fluorohexahydro-1H-pyrrolizin-7a-yl)methoxy)-5,6,7,8-tetrahydropyrido[3,4-d]pyrimidin-4-yl)(methyl)amino)pyrrolidin-1-yl)-3-(3-methyl-1,2,4-oxadiazol-5-yl)prop-2-en-1-one] | < 10 |
| Cc1cc(/C=C/C(=O)N2CC(CN(C)c3nc(OC[C@@]45CCCN4C[C@H](F)C5)nc4c(F)c(-c5cccc6ccc(F)c(F)c56)ncc34)C2)nc(C)n1 [Example 274, (E)-1-(3-(((7-(7,8-difluoronaphthalen-1-yl)-8-fluoro-2-(((2R,7aS)-2-fluorotetrahydro-1H-pyrrolizin-7a(5H)-yl)methoxy)pyrido[4,3-d]pyrimidin-4-yl)(methyl)amino)methyl)azetidin-1-yl)-3-(2,6-dimethylpyrimidin-4-yl)prop-2-en-1-one] | 10 to 100 |
| Cc1nccc(/C=C/C(=O)N2CC[C@@H](N(C)c3nc(OC[C@@]45CCCN4C[C@H](F)C5)nc4c(F)c(-c5cccc6ccc(F)c(Cl)c56)ncc34)C2)n1 [Example 270, (E)-1-((R)-3-((7-(8-chloro-7-fluoronaphthalen-1-yl)-8-fluoro-2-(((2R,7aS)-2-fluorotetrahydro-1H-pyrrolizin-7a(5H)-yl)methoxy)pyrido[4,3-d]pyrimidin-4-yl)(methyl)amino)pyrrolidin-1-yl)-3-(2-methylpyrimidin-4-yl)prop-2-en-1-one] | 10 to 100 |
| C=CC(=O)N1CC(CN(C)c2nc(OC[C@@]34CCCN3C[C@H](F)C4)nc3c(F)c(-c4cccc5ccc(F)c(F)c45)ncc23)C1 [Example 246, 1-(3-(((7-(7,8-difluoronaphthalen-1-yl)-8-fluoro-2-(((2R,7aS)-2-fluorotetrahydro-1H-pyrrolizin-7a(5H)-yl)methoxy)pyrido[4,3-d]pyrimidin-4-yl)(methyl)amino)methyl)azetidin-1-yl)prop-2-en-1-one] | 10 to 100 |

Same assay, conditions: additional exemplary compounds; KRAS G12C and cRAF binding; read-out: RAF1 RBD IC50

| Structure (SMILES) | IC50 [nM] |
| --- | --- |
| CCN(CC)C/C=C/S(=O)(=O)CCN(C)c1nc(OC[C@@]23CCCN2C[C@H](F)C3)nc2c1CCN(c1cccc3cccc(Cl)c13)C2 | < 10 |
| CCN(CC)C/C=C/S(=O)(=O)CCN(C)c1nc(OC[C@@H]2CCCN2C)nc2c(F)c(-c3cccc4cccc(Cl)c34)ncc12 | 10 to 100 |
| Cc1nccc(/C=C/C(=O)N2CC3(CCN(c4nc(OC[C@@]56CCCN5C[C@H](F)C6)nc5c(F)c(-c6cccc7cccc(Cl)c67)ncc45)C3)C2)n1 | > 500 |
| C=CC(=O)N1C[C@H](F)[C@@H](N(C)c2nc(OC[C@@]34CCCN3C[C@H](F)C4)nc3c(F)c(-c4cccc5cccc(Cl)c45)ncc23)C1 [drawing 2208] | 10 to 100 |
| CN(CCS(=O)(=O)/C=C/CN1CC(F)C1)c1nc(OCC23CCCN2CCC3)nc2c1CCN(c1cccc3cccc(Cl)c13)C2 | 100 to 500 |
| CN(c1nc(OCC23CCCN2CCC3)nc2c(F)c(-c3cccc4cccc(Cl)c34)ncc12)[C@@H]1CCN(C(=O)/C=C/c2ccncn2)C1 | > 500 |
| CN(c1nc(OC[C@@]23CCCN2C[C@H](F)C3)nc2c(F)c(-c3cccc4cccc(Cl)c34)ncc12)[C@@H]1CCN(C(=O)/C=C/c2ncc(F)cn2)C1 | > 500 |
| C=CS(=O)(=O)C1CCCN(c2nc(OCC34CCCN3CCC4)nc3c2CCN(c2cccc4cccc(Cl)c24)C3)C1 (centres unmarked) | 10 to 100 |
| Cc1nccc(/C=C/C(=O)N2C[C@H]3CC[C@@H](C2)N3c2nc(OC[C@@]34CCCN3C[C@H](F)C4)nc3c(F)c(-c4cccc5cccc(Cl)c45)ncc23)n1 | > 500 |
| C=CC(=O)N1C[C@H](N(C)c2nc(OCC34CCCN3CCC4)nc3c2CCN(c2cccc4cccc(Cl)c24)C3)C[C@H]1C | > 500 |
| CN(CCS(=O)(=O)/C=C/CN1CCC(F)(F)C1)c1nc(OCC23CCCN2CCC3)nc2c1CCN(c1cccc3cccc(Cl)c13)C2 | > 500 |
| CN(C)C/C=C/C(=O)N1CCC(N(C)c2nc(OC[C@@H]3CCCN3C)nc3c2CCN(c2cccc4cccc(Cl)c24)C3)C1 (some centres unmarked) | 100 to 500 |
| CN1CCC[C@H]1COc1nc(N(C)[C@@H]2CCN(C(=O)/C=C/CN3CC(F)C3)C2)c2cnc(-c3cccc4cccc(Cl)c34)c(F)c2n1 | > 500 |
| Cc1cc(/C=C/C(=O)N2CC[C@@H](N(C)c3nc(OCC45CCCN4CCC5)nc4c(F)c(-c5cccc6cccc(Cl)c56)ncc34)C2)on1 | > 500 |
| C=CC(=O)N1C[C@H](N(C)c2nc(OCC34CCCN3CCC4)nc3c2CCN(c2cccc4cccc(Cl)c24)C3)C[C@H]1CC#N | > 500 |
